Series [1] concerns iKRas cells. Briefly: Intracellular endomembrane lipid nanosensor (reporter) assay, near-infrared hyperspectral microscopy. Conditions: for attenuation of lipid reporter response (lipid dysregulation) in iKRas cells: 50 nM during the 24 h induction period, order darapladib>rilapladib≈ML256>AA39-2; for lipid nanosensor response in iKRas relative to vector: pathway inhibitors, 500 nM, 24 h treated cultures. In kind it is cell-based, mouse. Here is the method:
Hyperspectral Microscopy. For lipid reporter imaging experiments, cells were plated on 35 mm glass bottom dishes (MatTek Corp. P35G-1.5-10-C) so that around 0.5-0.8E6 cells were present on assay day. 24 h prior to assay, cells were briefly rinsed with fresh media and cultured as described. On the day of the assay, test media was removed to a sterile Eppendorf, spun in a mini-fuge to pellet cellular debris, and stored at 37° C. Attached cells were briefly rinsed with Pulse media (serum-free complete medium), then exposed to nano-reporter (0.2 μg/mL in Pulse media) for 30 minutes. After exposure, excess nano-reporter was removed by rinsing in complete medium and the stored test media was re-added to the dish for the 5-h incubation period. Near-infrared hyperspectral microscopy^87 was performed on live attached cells to obtain fluorescence emission maps from endomembrane vesicles.^88 Briefly, a 730 nm continuous wave diode laser was pumped through fibers to a 100× oil objective to excite the fluorescent reporters inside attached cells. Collected emission was stored as a hyperspectral imaging cube of encoded wavelengths rectified between 1100 and 1200 nm. The center wavelength for each pixel in the cube was obtained by fitting a Lorentzian function in MATLAB. The center wavelength of the entire population of pixels in each cube, representing a 100× magnified imaging field, was fit with a Gaussian function in OriginPro 9.0. The resulting fit center wavelength values are reported.
To assess lipid dysregulation in live cells, the lipid nanosensor was introduced into the culture medium of RAS- or vector-transformed cell lines. Near-infrared hyperspectral microscopy was utilized to acquire the fluorescence spectra of the nanosensor spatially within iKRas, iHRas, eKRas, vector control cells, and MEFs harboring mutations in the parallel PI3K pathway. The data were fitted to determine the center wavelength of the nanosensor emission band, which was then mapped back over the brightfield images of the cells and plotted in a histogram. Using this method, the average sensor emission wavelength 24 h and 72 h after oncogenic RAS induction was measured.
Next measured was whether this intracellular reporter response was sensitive to sPLA2-mediated generation of lysophospholipids and related lipid species. Lipid accumulation was measured using the nanosensor 24 h after treating the cells with an array of PLA2 inhibitors.

The subject of series [2] is phospho-ERK and p21^waf1/cip1. Description: Immunoblot of vector/iKRas cell lysates. Conditions: vector and iKRas cells, 24 h exposure to 10 μM lipid. The class given is cell-based, mouse.
The subject of another series is PAF receptor (PAF-R). Description: Immunoblot for the PAF receptor. The class given is cell-based, mouse. As to conditions: vector cells, 24 h exposure to 10 μM lipid.
Another series relates to eKRas cells. Description: Proliferation assay (attached cell number). The class given is cell-based, mouse. As to conditions: critical micelle concentrations, 10 μM of each lipid. Here is the method: (§1) Proliferation Assays. To assay proliferation, 6E4 cells/well were plated in 6-well plates (ThermoFisher 140675) with complete medium to generate triplicate wells, per experimental condition, for Day 0 through Day 3/4. 6-8 h after seeding cells, wells were briefly rinsed with fresh medium and then cultured with the appropriately supplemented test medium. The Day 0 plate was counted at this time. Plates were counted at 24-h intervals. Attached and spread MEF's are >95% viable,^84 as confirmed by a lack of trypan blue staining or positive western blot for cleaved caspase 7 or PARP (data not shown). To count attached cells, media was aspirated from each well then rinsed, using manual agitation, twice in room temperature (RT) 1×HBSS (w/o Ca/Mg++). Attached cells were trypsinized with 1 mL TrypLE. An imaging cytometer (Thermo T10796; factory default settings) was loaded with chamber slides (ThermoFisher T10794) containing 24 μL of the trypsinized cell suspension. 18 fields were imaged; the cytometer output was given in cells/mL. […] An upper gating threshold was set at 34 μm to include size-doubling of the measured 17 μm average.
(§2) As sPLA2 enzyme isoforms have been described as both tumor suppressors and tumor promoters,^48, 49, 50, 51, 52, 53 iKRas cells were interrogated using two representative lipids—a group 7 sPLA2 substrate, and a product. First, the vector control cells were incubated with increasing concentrations of 16:0 lysoPC, a group 7 sPLA2 product, and 16:0 methylcarbamyl PAF (cPAF), a substrate. […] Therefore, in the vector control cells, intracellular accumulation of the group 7 sPLA2 product affected proliferation to a greater extent than the enzyme substrate. […] In addition, eKRas cells were much more sensitive to the substrate lipid absent significant RAS-related damage or group 7 activity.

Series [3] concerns iKRas cells. Briefly: Proliferation assay (attached cell number). In kind it is cell-based, mouse. As to conditions: critical micelle concentrations, 10 μM of each lipid. Here is the method:
as §1, §2

A further series deals with vector control cells. Briefly: Proliferation assay (attached cell number). The class given is cell-based, mouse. Conditions: increasing lipid concentrations spiked into culture medium; lysoPC effect near its CMC, cPAF at sub-critical and critical micelle concentrations. Here is the method:
as §1, §2

For series [4] the following is noted: depending on the cell type and downstream marker used; read-out: reported EC50; cited from earlier work.
Series [5] deals with RAW 264.7 murine macrophages. Briefly: Cell viability after darapladib treatment (CellTiter-Glo). Conditions: 48 h incubation. For orientation: Cellular ATP, detected with luciferase, serves as a proxy for viable cell number.
Protocol: (§3) 5,000 cells/well of doxycycline induced iKRas or target mouse/human cells were seeded in 96-well plates 1 day prior to the start of treatment. On the day of the experiment, increasing concentrations of darapladib were added in triplicate to the conditioned media. After incubation for 48 h, the cell viability was assessed using the CellTiter-Glo® luminescent assay (Promega G9681). Prior to use, reconstituted kit reagent was equilibrated to room temperature. To initiate cell lysis, 50 μL of reagent was added to each well. Plates were incubated for 10 minutes at room temperature with gentle mixing on an orbital shaker. Luminescence was measured using a Tecan Infinite M1000 Pro plate reader (Tecan Group Ltd.).
For series [6], the system named is syngeneic KrasG12D/+; Trp53−/− (KP) transplant model of non-small cell lung cancer. Briefly: In vivo survival study. More on the design: species or system mouse. Here is the method: In vivo survival study. To generate the syngeneic KP transplant lung cancer model, a cell line derived from a KrasG12D/+; Trp53−/−(KP) GEMM lung tumor was infected with a retroviral luciferase (Luc)-GFP construct, and 5000 KP tumor cells resuspended in 400 μL of PBS were tail vein injected into 7 week old Female C57BL/6 mice.^90 Mice were randomized into various study cohorts before treatment with vehicle or darapladib. Treatments were administered by oral gavage once per day, Monday through Friday. […] Bioluminescence positive mice remained in the study while bioluminescence negative mice were euthanized, and their lungs were harvested for histology. Tissues were rinsed and fixed in 4° C. buffered 4% paraformaldehyde for 24-48 hours and moved to 4° C. 70% ethanol for long term storage, embedding, sectioning, and staining (H&E, anti-GFP primary antibody, anti-Ki-67 primary antibody). […] Tissues negative for histological dysplasia were excluded from final study analysis; tissues positive for histological dysplasia were kept in the final study analysis. Each cohort's N value was adjusted to reflect histology results before final analysis. […]
The inventors next assessed whether group 7 inhibition would impact the development of a RAS-harboring murine cancer model. […]

In series [7] the test system is RAS harboring lines (iKRas cells and cell lines derived from lung, pancreas, and colorectal tumors). Briefly: Cell viability after darapladib treatment (CellTiter-Glo). Conditions: 48 h incubation.
Protocol: as §3
For series [8] the following is noted: cited from earlier work.
Series [9] deals with iKRas cells. Description: Lipidomics (LC-MS) after inhibitor treatment. Conditions: iKRas cells treated with darapladib; especially lysoPC, also lysoPE, lysoPI, lysoPS.
Protocol: Lipidomics and Analysis. 100 mm plates were seeded, grown, and induced so that on the day of harvest dishes were 90-100% confluent. Culture medium was Phenol red-free. To harvest conditioned media, the full volume was moved to a glass vial on dry ice/alcohol slurry and a fresh cold PBS volume equal to ¼ of the collected volume was used to rinse the cells; this volume was collected and pooled. To harvest lysate, a separate dish of cells was washed three times with cold HBSS; on the last wash, liquid was aspirated, and the dish was placed onto the dry ice/alcohol slurry to freeze for 30 seconds. 1 mL of a 2:0.8 parts methanol:water mix (chilled to −80° C. and stored on dry ice) was added to the plate. The dish was immediately moved to wet ice and scrapped with a rubber policeman. Lysate was pooled in the bottom of the dish, and then transferred to a glass vial on dry ice until −80° C. storage. The lysate extract vials were briefly flushed with nitrogen gas. […] Quantitation used an MRM method under positive and negative electrospray modes. Raw data was reported as Mol %, or ng/mL of the lipid species normalized to the absolute total lipid abundance (ng/mL) detected by the mass spectrometer. Reported data is Mol % divided by the total adherent cell count from a parallel-treated plate, calculated as a Fold change versus control: (iKRas/Vector)-1.
In series [10] the test system is eKRas versus wildtype SV40 MEFs. Description: Cell viability after darapladib treatment (CellTiter-Glo). Conditions: sigmoidal dose-response.
Protocol: as §3
For another series, the system named is vector line. Briefly: Intracellular endomembrane lipid nanosensor (reporter) assay, near-infrared hyperspectral microscopy. Conditions: 24 h with 100 nM dexamethasone salt.
The mark [11] stands for this setting: 20 nM during the 24 h induction period.

The EC50 is the midpoint of the concentration-response curve.

Protocol for vector line: For lipid reporter imaging experiments, cells were plated on 35 mm glass bottom dishes (MatTek Corp. P35G-1.5-10-C) so that around 0.5-0.8E6 cells were present on assay day. 24 h prior to assay, cells were briefly rinsed with fresh media and cultured as described. On the day of the assay, test media was removed to a sterile Eppendorf, spun in a mini-fuge to pellet cellular debris, and stored at 37° C. Attached cells were briefly rinsed with Pulse media (serum-free complete medium), then exposed to nano-reporter (0.2 μg/mL in Pulse media) for 30 minutes. After exposure, excess nano-reporter was removed by rinsing in complete medium and the stored test media was re-added to the dish for the 5-h incubation period. Near-infrared hyperspectral microscopy^87 was performed on live attached cells to obtain fluorescence emission maps from endomembrane vesicles.^88 Briefly, a 730 nm continuous wave diode laser was pumped through fibers to a 100× oil objective to excite the fluorescent reporters inside attached cells. Collected emission was stored as a hyperspectral imaging cube of encoded wavelengths rectified between 1100 and 1200 nm. The center wavelength for each pixel in the cube was obtained by fitting a Lorentzian function in MATLAB. […]

Regarding `O=C(N1CCCC1)n1ncc(-c2ccc(-c3ccccc3)cc2)n1` [AA39-2], the “attenuation of lipid reporter response (lipid dysregulation) in iKRas cells” value in the series on iKRas cells [1] is listed as “attenuated the reporter response”.
For `O=C1O/C(=C/Br)CCC1c1cccc2ccccc12` (stereo not drawn) [BEL], the “attenuation of lipid reporter response in iKRas cells” value with iKRas cells [1] (75 nM during the 24 h induction period) is on record as “unable to attenuate the lipid reporter response”.
With `Cn1nccc1Nc1nccc(-c2ccn([C@H](CO)c3ccc(Cl)c(F)c3)c(=O)c2)n1` [GDC-0994], the “lipid nanosensor response in iKRas relative to vector” value in the series on iKRas cells [1] is reported as “significantly diminished”.
Regarding `CCCCCCCCCCCCCCCCOCC(COCC(F)(F)F)OP(=O)(O)OC` (stereo not drawn) [MJ-33], the “attenuation of lipid reporter response in iKRas cells” value with iKRas cells [1] (setting [11]) was “unable to attenuate the lipid reporter response”.
Consider `Cc1cc(N2CCN(C(=O)Oc3ccc(-c4ccccc4)cn3)CC2)c2ccccc2n1` [ML256], for which the “attenuation of lipid reporter response (lipid dysregulation) in iKRas cells” value with iKRas cells [1] was “attenuated the reporter response”.
As to `N#Cc1c(Oc2ccc(F)c(NC(=O)Cc3cccc(C(F)(F)F)c3)c2)ccc2nc(NC(=O)C3CC3)sc12` [TAK-632], the “lipid nanosensor response in iKRas relative to vector” value with iKRas cells [1] is on record as “significantly diminished”.
With `CC(C)OC(=O)c1ccc(N2C(=O)C(Cl)=C(Cl)C2=O)cc1` [TSI-01], the “attenuation of lipid reporter response in iKRas cells” value with iKRas cells [1] (1 μM during the 24 h induction period) is “unable to attenuate the lipid reporter response”.
Take `Cc1c(C)c2c(c(C)c1O)CC[C@@](C)(CCC[C@H](C)CCC[C@H](C)CCCC(C)C)O2` [Vitamin E, α-tocopherol]: the “reporter response in iKRas cells” value in the series on iKRas cells [1] (20 μM ±-α-tocopherol during the 24 h induction period) is “abrogated”.
Regarding `CCCCCCCCCCCCCCCCOC[C@H](COP(=O)([O-])OCC[N+](C)(C)C)OC(=O)NC` [cPAF, 16:0 methylcarbamyl PAF], the “phospho-ERK and p21^waf1/cip1 expression” value in [2] is recorded as “increased”. For the same molecule, the PAF-R expression result in the series with PAF receptor (PAF-R) is on record as “downregulated”. Besides, in the series with eKRas cells, the “effect on eKRas cell proliferation” value is reported as “potent arresting effect”. For the same molecule, the “effect on iKRas cell proliferation” value with iKRas cells [3] is given as “potent arresting effect”. The “vector control cell proliferation” value in the series on vector control cells is on record as “mild stimulatory effect”.
Turning to `CCN(CC)CCN(Cc1ccc(-c2ccc(C(F)(F)F)cc2)cc1)C(=O)Cn1c(SCc2ccc(F)cc2)nc(=O)c2c1CCC2` [darapladib], in series [4], the EC50 is 10 to 1000 nM. Further, in the series with iKRas cells [1], the “attenuation of lipid reporter response (lipid dysregulation) in iKRas cells” value is listed as “attenuated the reporter response”. In addition, the “viability of RAW 264.7 control cell line” value in [5] is “largely unaffected”. Besides, the “lung cancer-associated death and morbidity” value in series [6] (10 mg/kg daily oral gavage starting on Day 1 or Day 6, C57BL/6 mice) was “significant delay”. The “survival in Kras^G12D/+/p53^−/− lung cancer model in mice” value in series [6] (mouse, in vivo) is listed as “prolonged survival”. For the same molecule, the “viability of RAS harboring lines” value in [7] is “died at low micromolar concentrations”. Besides, the safety in vivo entry in series [8] is “safe and apparently side-effect-free”. In addition, the “cardiovascular clinical endpoint, Phase 3 trials” value in series [8] (in vivo) was “failing to meet its intended cardiovascular clinical endpoint”. The “lysophospholipid levels (lipidomics)” value in the series with iKRas cells [9] is given as “significant attenuation”. Further, the “potency at killing eKRas versus wildtype cells” value in series [10] is “twice as potent”.
On to `C[C@@H]1C[C@H]2[C@@H]3CCC4=CC(=O)C=C[C@]4(C)[C@@]3(F)[C@@H](O)C[C@]2(C)[C@@]1(O)C(=O)CO` [dexamethasone], for which, in the series on vector line, the “reporter response in the vector line” value is “increased the reporter response”.
Turning to `CCCCCCCCCCCCCCCC(=O)OC[C@@H](O)COP(=O)([O-])OCC[N+](C)(C)C` [lysoPC, 16:0 lysoPC], in series [2], the “phospho-ERK and p21^waf1/cip1 expression” value is recorded as “not”. Moreover, the “effect on eKRas cell proliferation” value in the series on eKRas cells is given as “negligible arresting effect or a reduced arresting effect”. In addition, the “effect on iKRas cell proliferation” value in the series with iKRas cells [3] is “negligible arresting effect or a reduced arresting effect”. In addition, the “vector control cell proliferation” value in the series with vector control cells is reported as “arrested”.
`COCCN1CCC(N(Cc2ccc(-c3ccc(C(F)(F)F)cc3)cc2)C(=O)Cn2c(SCc3cccc(F)c3F)cc(=O)c3ccccc32)CC1` [rilapladib]: the “attenuation of lipid reporter response (lipid dysregulation) in iKRas cells” value in the series on iKRas cells [1] was “attenuated the reporter response”.
As to `CCc1c(C(=O)C(N)=O)c2c(OCC(=O)O)cccc2n1Cc1ccccc1` [varespladib], the “attenuation of lipid reporter response in iKRas cells” value in the series with iKRas cells [1] (setting [11]) is “unable to attenuate the lipid reporter response”.

The record behind these values is US20220257599A1, “METHODS USEFUL IN TREATING CANCERS HARBORING A KRAS OR HRAS MUTATION OR AMPLIFICATION” (Memorial Sloan Kettering Cancer Center, priority 2019, published 2022).
